Experimental data reported in patent US20050107423A1, “Quinolone antibacterial agents” (priority 2003, published 2005).
Converted amounts (≈) assume the structure as drawn.

Experiments:
Assay in all cases: Antibacterial assay, microtitration MIC (Test A)
Type in all cases: cell-based
[1] = tested on: E. faecalis MGH-2; conditions: strain MGH-2; for MIC: Enterococcus faecalis, MGH2, Gram Positive Bacteria, read-out: Minimum Inhibitory Concentrations E. faecalis MGH-2; for Minimum Inhibitory Concentrations E. faecalis MGH-2: Gram Positive Bacteria
In short: (§1)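 Minimum inhibitory concentrations were determined by standard microtitration techniques against the listed Gram-negative and Gram-positive bacterial strains.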

[2] = tested on: S pyogenes C203; conditions: Gram Positive Bacteria, strain C203; for MIC: read-out: Minimum Inhibitory Concentrations S pyogenes C203
In short: as §1

[3] = tested on: S. aureus UC-76; conditions: strain UC-76; for MIC: Staphylococcus aureus, UC76, Gram Positive Bacteria, read-out: Minimum Inhibitory Concentrations S. aureus UC-76; for Minimum Inhibitory Concentrations S. aureus UC-76: Gram Positive Bacteria
In short: as §1

[4] = tested on: S. pneumo SV-1; conditions: Gram Positive Bacteria, strain SV-1; for MIC: read-out: Minimum Inhibitory Concentrations S. pneumo SV-1
In short: as §1

Compound	MIC [1]	MIC [2]	MIC [3]	MIC [4]	Minimum Inhibitory Concentrations E. faecalis MGH-2 [1]	Minimum Inhibitory Concentrations S pyogenes C203 [2]	Minimum Inhibitory Concentrations S. aureus UC-76 [3]	Minimum Inhibitory Concentrations S. pneumo SV-1 [4]
Cc1c(N2CC(C(C)O)C(C)(C)C2)c(F)cc2c(=O)c(C(=O)O)cn(C3CC3)c12 (stereo not shown) [drawing 432]	0.06 µg/mL (≈ 0.149 µM)	0.125 µg/mL (≈ 0.311 µM)	0.008 µg/mL (≈ 0.0199 µM)	0.06 µg/mL (≈ 0.149 µM)	–	–	–	–
COCCOCC(O)C1CN(c2c(F)cc3c(=O)c(C(=O)O)cn(C4CC4)c3c2C)CC1(C)C (stereo not shown) [drawing 433]	0.5 µg/mL (≈ 1.05 µM)	1 µg/mL (≈ 2.1 µM)	0.03 µg/mL (≈ 0.063 µM)	1 µg/mL (≈ 2.1 µM)	–	–	–	–
COCC(O)C1CN(c2c(F)cc3c(=O)c(C(=O)O)cn(C4CC4)c3c2C)CC1(C)C (stereo not shown) [drawing 435]	0.25 µg/mL (≈ 0.578 µM)	0.5 µg/mL (≈ 1.16 µM)	0.015 µg/mL (≈ 0.0347 µM)	0.25 µg/mL (≈ 0.578 µM)	–	–	–	–
Cc1c(N2CC(C)(CO)C(C)(CO)C2)c(F)cc2c(=O)c(C(=O)O)cn(C3CC3)c12 (stereo not shown) [drawing 439]	–	–	–	–	0.25 µg/mL	0.25 µg/mL	0.15 µg/mL	0.25 µg/mL
Cc1c(N2C[C@@H]3CC[C@@H](O)[C@@H]3C2)c(F)cc2c(=O)c(C(=O)O)cn(C3CC3)c12 [drawing 453]	0.06 µg/mL (≈ 0.155 µM)	0.06 µg/mL (≈ 0.155 µM)	0.004 µg/mL (≈ 0.0104 µM)	0.03 µg/mL (≈ 0.0776 µM)	–	–	–	–
Cc1c(N2C[C@@H]3C[C@@H](O)[C@@H](O)[C@@H]3C2)c(F)cc2c(=O)c(C(=O)O)cn(C3CC3)c12 [drawing 457]	0.125 µg/mL (≈ 0.311 µM)	0.125 µg/mL (≈ 0.311 µM)	0.008 µg/mL (≈ 0.0199 µM)	0.125 µg/mL (≈ 0.311 µM)	–	–	–	–
O=C(O)c1cn(C2CC2)c2c(OC(F)F)c(N3CC4CC(O)C(O)C4C3)c(F)cc2c1=O (stereo not shown) [drawing 459]	0.25 µg/mL (≈ 0.55 µM)	0.5 µg/mL (≈ 1.1 µM)	0.008 µg/mL (≈ 0.0176 µM)	0.25 µg/mL (≈ 0.55 µM)	–	–	–	–
COc1c(N2C[C@@H]3CC[C@@](O)(CO)[C@@H]3C2)c(F)cc2c(=O)c(C(=O)O)cn(C3CC3)c12 [drawing 460]	0.25 µg/mL (≈ 0.578 µM)	0.5 µg/mL (≈ 1.16 µM)	0.015 µg/mL (≈ 0.0347 µM)	0.25 µg/mL (≈ 0.578 µM)	–	–	–	–

Now from value to compound, other results behind:

MIC [1]	MIC [2]	MIC [3]	MIC [4]	Compound	Minimum Inhibitory Concentrations E. faecalis MGH-2 [1]	Minimum Inhibitory Concentrations S pyogenes C203 [2]	Minimum Inhibitory Concentrations S. aureus UC-76 [3]	Minimum Inhibitory Concentrations S. pneumo SV-1 [4]
0.125 µg/mL (≈ 0.299 µM)	0.125 µg/mL (≈ 0.299 µM)	0.008 µg/mL (≈ 0.0191 µM)	0.125 µg/mL (≈ 0.299 µM)	Cc1c(N2CC(C(O)CO)C(C)(C)C2)c(F)cc2c(=O)c(C(=O)O)cn(C3CC3)c12 (stereo not shown) [drawing 434]	–	–	–	–
–	–	–	0.5 µg/mL (≈ 1.19 µM)	Cc1c(N2CC(C)(CO)C(C)(CO)C2)c(F)cc2c(=O)c(C(=O)O)cn(C3CC3)c12 (stereo not shown) [drawing 440]	1 µg/mL	1 µg/mL	0.015 µg/mL	–
0.125 µg/mL (≈ 0.3 µM)	0.25 µg/mL (≈ 0.6 µM)	0.008 µg/mL (≈ 0.0192 µM)	0.06 µg/mL (≈ 0.144 µM)	Cc1c(N2C[C@@H]3CC[C@@](O)(CO)[C@@H]3C2)c(F)cc2c(=O)c(C(=O)O)cn(C3CC3)c12 [drawing 461]	–	–	–	–
0.5 µg/mL (≈ 1.12 µM)	1 µg/mL (≈ 2.24 µM)	0.15 µg/mL (≈ 0.336 µM)	0.25 µg/mL (≈ 0.56 µM)	COc1c(N2C[C@]3(CO)CCC[C@]3(CO)C2)c(F)cc2c(=O)c(C(=O)O)cn(C3CC3)c12 [drawing 462]	–	–	–	–
0.125 µg/mL (≈ 0.29 µM)	0.125 µg/mL (≈ 0.29 µM)	0.004 µg/mL (≈ 0.00929 µM)	0.06 µg/mL (≈ 0.139 µM)	Cc1c(N2CC3(CO)CCCC3(CO)C2)c(F)cc2c(=O)c(C(=O)O)cn(C3CC3)c12 (stereo not shown) [drawing 463]	–	–	–	–
